Laboratory results: patent US20250059179A1, “Heterocyclic Compounds and Methods of Use” (AMGEN INC., priority 2021, published 2025)
Read-outs that look alike come from different tables or passages of the source.

How the values were obtained:
[1] = target: GDP-bound KRAS protein (aa 1-169), containing both G12D and C118A amino acid substitutions (Homo sapiens, UniProt P01116, C118A/G12D); test: KRAS G12D Coupled Nucleotide Exchange Assay; format: biochemical; conditions: 2 h compound pre-incubation; SOS-mediated nucleotide exchange, cRAF AlphaScreen readout;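 further: IC50 obtained by fitting the AlphaScreen signal with a four-parameter logistic curve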
Sequence of GDP-bound KRAS protein (aa 1-169), containing both G12D and C118A amino acid substitutions (P01116 1-169 isoform P01116-2 G12D/C118A): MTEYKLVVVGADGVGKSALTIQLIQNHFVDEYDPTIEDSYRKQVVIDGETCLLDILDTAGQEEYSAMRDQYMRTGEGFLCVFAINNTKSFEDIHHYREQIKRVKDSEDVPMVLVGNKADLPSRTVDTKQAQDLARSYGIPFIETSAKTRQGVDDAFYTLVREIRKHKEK

[2] = target: His-tagged KRAS G12D protein (Homo sapiens, UniProt P01116, G12D); test: KRAS G12D TR-FRET Assay; format: binding; conditions: biotinylated KRPep-2d substrate, 10 μM GDP;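 further: europium anti-His antibody paired with streptavidin-d2 as FRET partners, initial 30 min incubation, then peptide 1 h and detection reagents 1 h, all at room temperature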
Sequence of His-tagged KRAS G12D protein (P01116 1-188 isoform P01116-2 G12D): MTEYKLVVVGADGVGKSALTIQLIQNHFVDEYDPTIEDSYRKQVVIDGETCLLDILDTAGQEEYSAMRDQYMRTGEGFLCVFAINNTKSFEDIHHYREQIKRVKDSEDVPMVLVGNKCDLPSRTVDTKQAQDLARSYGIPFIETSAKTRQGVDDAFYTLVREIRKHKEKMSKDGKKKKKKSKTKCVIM

[3] = test system: Phosphorylation of ERK1/2 in A-427 cells; test: Phospho-ERK1/2 MSD Assay; format: cell-based; conditions: 2 h compound treatment, read-out: pERK (A427 cells) IC50
Procedure: A-427 (ATCC® HTB-53™) cells were cultured in RPMI 1640 Medium (ThermoFisher Scientific 11875093) containing 10% fetal bovine serum (ThermoFisher Scientific 16000044) and 1× penicillin-streptomycin-glutamine (ThermoFisher Scientific 10378016). Sixteen hours prior to compound treatment, A-427 cells were seeded in 96-well cell culture plates at a density of 25,000 cells/well and incubated at 37° C., 5% CO2. A compound dose-response titration was diluted in growth media, added to appropriate wells of a cell culture plate, and then incubated at 37° C., 5% CO2 for 2 h. Following compound treatment, cells were washed with ice-cold Dulbecco's phosphate-buffered saline, no Ca^2+ or Mg^2+ (ThermoFisher Scientific 14190144), and then lysed in RIPA buffer (50 mM Tris-HCl pH 7.5, 1% Igepal, 0.5% sodium deoxycholate, 150 mM NaCl, and 0.5% sodium dodecyl sulfate) containing protease inhibitors (Roche 4693132001) and phosphatase inhibitors (Roche 4906837001). Phosphorylation of ERK1/2 in compound-treated lysates was assayed using Phospho-ERK1/2 Whole Cell Lysate kits (Meso Scale Discovery K151DWD) according to the manufacturer's protocol. Assay plates were read on a Meso Scale Discovery Sector Imager 6000, and data were analyzed using a 4-parameter logistic model to calculate IC50 values.

Row | Compound | Avg 2 h Coupled Exchange IC50 [1] | IC50 [2] | IC50 ([3]; Homo sapiens, A-427, 2 h) | IC50 [3]
1 | CN1CCC[C@H]1COc1nc(N2CCCNCCC2)c2cc(Cl)c(-c3cccc4sc(N)nc34)c(F)c2n1 [Example 35, 4-(6-chloro-4-(1,5-diazocan-1-yl)-8-fluoro-2-(((S)-1-methylpyrrolidin-2-yl)methoxy)quinazolin-7-yl)benzo[d]thiazol-2-amine] | 65 nM | 336 nM | > 10000 nM | 
2 | CN1C[C@H](F)C[C@H]1COc1nc(N2[C@@H]3CNC[C@H]2COC3)c2cc(Cl)c(-c3ccc(F)c4sc(N)nc34)c(F)c2n1 [Example 125, 4-(4-((1R,5S)-3-oxa-7,9-diazabicyclo[3.3.1]nonan-9-yl)-6-chloro-8-fluoro-2-(((2S,4R)-4-fluoro-1-methylpyrrolidin-2-yl)methoxy)quinazolin-7-yl)-7-fluorobenzo[d]thiazol-2-amine] | 9 nM | 6 nM | 369 nM | 
3 | Nc1nc2c(-c3c(Cl)cc4c(N5[C@@H]6CC[C@H]5CNC6)nc(OC[C@@]56CCCN5C[C@H](F)C6)nc4c3F)ccc(F)c2s1 [Example 2, 4-(4-((1R,5S)-3,8-diazabicyclo[3.2.1]octan-8-yl)-6-chloro-8-fluoro-2-(((2R,7aS)-2-fluorotetrahydro-1H-pyrrolizin-7a(5H)-yl)methoxy)quinazolin-7-yl)-7-fluorobenzo[d] thiazol-2-amine] | 4 nM | 5 nM | 23 nM | 
4 | Nc1nc2c(-c3c(Cl)cc4c(N5C[C@H]6C[C@@H](C5)N6)nc(OC[C@@]56CCCN5C[C@H](F)C6)nc4c3F)ccc(F)c2s1 [Example 6, 4-(4-((1R,5S)-3,6-diazabicyclo[3.1.1]heptan-3-yl)-6-chloro-8-fluoro-2-(((2R,7aS)-2-fluorotetrahydro-1H-pyrrolizin-7a(5H)-yl)methoxy)quinazolin-7-yl)-7-fluorobenzo[d] thiazol-2-amine] | 5 nM | 5 nM | 364 nM | 
5 | CN1CCC[C@H]1COc1nc(C2=CCNCC2)c2cc(Cl)c(-c3cccc4sc(N)nc34)c(F)c2n1 [Example 144, 4-(6-chloro-8-fluoro-2-(((S)-1-methylpyrrolidin-2-yl)methoxy)-4-(1,2,3,6-tetrahydropyridin-4-yl)quinazolin-7-yl)benzo[d]thiazol-2-amine] | 37 nM | 79 nM | 2300 nM | 
6 | CN1CCC[C@H]1COc1nc(N2CC3CC(C2)N3)c2cc(Cl)c(-c3cccc4sc(N)nc34)c(F)c2n1 [Example 5, 4-(4-(3,6-diazabicyclo[3.1.1]heptan-3-yl)-6-chloro-8-fluoro-2-(((S)-1-methylpyrrolidin-2-yl)methoxy)quinazolin-7-yl)benzo[d]thiazol-2-amine] | 5 nM | 10 nM | 2630 nM | 
7 | CN1CCCCC1CCOc1nc(N2CCNCC2)c2cc(Cl)c(-c3cccc4sc(N)nc34)c(F)c2n1 (stereo not shown) [Example 60, 4-(6-chloro-8-fluoro-2-(2-(1-methylpiperidin-2-yl)ethoxy)-4-(piperazin-1-yl)quinazolin-7-yl)benzo[d] thiazol-2-amine] | 343 nM | 480 nM | > 25000 nM | 
8 | Nc1nc2c(-c3c(Cl)cc4c(N5CCNCC5)nc(OCC56CCCCN5CCC6)nc4c3F)cccc2s1 (stereo not shown) [Example 57, 4-(6-chloro-8-fluoro-2-((hexahydro-indolizin-8a(1H)-yl)methoxy)-4-(piperazin-1-yl)quinazolin-7-yl)benzo[d] thiazol-2-amine] | 141 nM | 265 nM | > 25000 nM | 
9 | CN1CCC[C@H]1CCOc1nc(N2CCNCC2)c2cc(Cl)c(-c3cccc4sc(N)nc34)c(F)c2n1 [Example 61, 4-(6-chloro-8-fluoro-2-(2-((S)-1-methyl-pyrrolidin-2-yl)ethoxy)-4-(piperazin-1-yl)quinazolin-7-yl)benzo[d] thiazol-2-amine] | 361 nM | 476 nM | > 25000 nM | 
10 | Nc1nc2c(-c3c(Cl)cc4c(N5CC6CC5CCN6)nc(OC[C@@]56CCCN5C[C@H](F)C6)nc4c3F)ccc(F)c2s1 (stereo partly drawn) [Example 34, 4-(4-(2,6-diazabicyclo[3.2.1]octan-6-yl)-6-chloro-8-fluoro-2-(((2R,7aS)-2-fluorotetrahydro-1H-pyrrolizin-7a(5H)-yl)methoxy)quinazolin-7-yl)-7-fluorobenzo[d] thiazol-2-amine] | 4 nM | 11 nM | 3100 nM | 
11 | Nc1nc2c(-c3c(Cl)cc4c(N5[C@@H]6CC[C@H]5CNC6)nc(OCC56CCCN5CC(F)(F)C6)nc4c3F)ccc(F)c2s1 (stereo partly drawn) [Example 9, 4-(4-((1R,5S)-3,8-diazabicyclo[3.2.1]octan-8-yl)-6-chloro-2-((2,2-difluorotetrahydro-1H-pyrrolizin-7a(5H)-yl)methoxy)-8-fluoroquinazolin-7-yl)-7-fluorobenzo[d] thiazol-2-amine] | 9 nM | 7 nM | 403 nM | 
12 | Nc1nc2c(-c3c(Cl)cc4c(N5CC6CNCC5C6)nc(OC[C@@]56CCCN5C[C@H](F)C6)nc4c3F)ccc(F)c2s1 (single isomer, unassigned) [Example 29] | 13 nM | 107 nM | 4730 nM | 
13 | Nc1nc2c(-c3c(Cl)cc4c(N5CCCNCC5)nc(OC[C@@]56CCCN5C[C@H](F)C6)nc4c3F)ccc(F)c2s1 [Example 28, 4-(6-chloro-4-(1,4-diazepan-1-yl)-8-fluoro-2-(((2R,7aS)-2-fluorotetrahydro-1H-pyrrolizin-7a(5H)-yl)methoxy)quinazolin-7-yl)-7-fluorobenzo[d] thiazol-2-amine] | 3 nM | 8 nM | 2300 nM | 
14 | Nc1nc2c(-c3c(Cl)cc4c(N5CC6CNCC5C6)nc(OC[C@@]56CCCN5C[C@H](F)C6)nc4c3F)ccc(F)c2s1 (single isomer, unassigned) [Example 30] | 15 nM | 96 nM |  | 7910 nM
15 | CCc1cc2c(N3CCNCC3)nc(OC[C@@H]3CCCN3C)nc2c(F)c1-c1cccc2sc(N)nc12 [Example 152, 4-(6-Ethyl-8-fluoro-2-(((S)-1-methylpyrrolidin-2-yl)methoxy)-4-(piperazin-1-yl)quinazolin-7-yl)benzo[d]thiazol-2-amine] | 95 nM | 217 nM | > 25000 nM | 
16 | Nc1nc2c(-c3c(Cl)cc4c(N5C[C@@H]6CC[C@H]5CN6)nc(OC[C@@]56CCCN5C[C@H](F)C6)nc4c3F)ccc(F)c2s1 [Example 38, 4-(4-((15,4S)-2,5-diazabicyclo[2.2.2]octan-2-yl)-6-chloro-8-fluoro-2-(((2R,7aS)-2-fluorotetrahydro-1H-pyrrolizin-7a(5H)-yl)methoxy)quinazolin-7-yl)-7-fluorobenzo[d] thiazol-2-amine] | 13 nM | 6 nM | 1090 nM | 
17 | CN1CCC[C@H]1COc1nc(C2=CCNC2)c2cc(Cl)c(-c3cccc4sc(N)nc34)c(F)c2n1 [Example 148, 4-(6-chloro-4-(2,5-dihydro-1H-pyrrol-3-yl)-8-fluoro-2-(((S)-1-methylpyrrolidin-2-yl)methoxy)quinazolin-7-yl)benzo[d]thiazol-2-amine] | 74 nM | 56 nM | 3410 nM | 
18 | CN1C[C@H](F)C[C@H]1COc1nc(N2[C@@H]3CC[C@H]2CNC3)c2cc(Cl)c(-c3ccc(F)c4sc(N)nc34)c(F)c2n1 [Example 3, 4-(4-((1R,5S)-3,8-diazabicyclo[3.2.1]octan-8-yl)-6-chloro-8-fluoro-2-(((2S,4R)-4-fluoro-1-methylpyrrolidin-2-yl)methoxy)quinazolin-7-yl)-7-fluorobenzo[d] thiazol-2-amine] | 5 nM | 6 nM | 194 nM | 
19 | Nc1nc2c(-c3c(Cl)cc4c(N5[C@@H]6CC[C@H]5CNC6)nc(OC[C@]56CCCN5C[C@H](F)C6)nc4c3F)ccc(F)c2s1 [Example 123, 4-(4-((1R,5S)-3,8-diazabicyclo[3.2.1]octan-8-yl)-6-chloro-8-fluoro-2-(((2R,7aR)-2-fluorotetrahydro-1H-pyrrolizin-7a(5H)-yl)methoxy)quinazolin-7-yl)-7-fluorobenzo[d]thiazol-2-amine] | 6 nM | 5 nM | 69 nM | 
20 | Nc1nc2c(-c3c(Cl)cc4c(N5CCNCC5)nc(OC[C@]56CCCN5C[C@H](F)C6)nc4c3F)cccc2s1 [Example 46, 4-(6-chloro-8-fluoro-2-(((2R,7aR)-2-fluorotetra-hydro-1H-pyrrolizin-7a(5H)-yl)methoxy)-4-(piperazin-1-yl)quinazolin-7-yl)benzo[d] thiazol-2-amine] |  |  | 3950 nM | 
